Drawing on patent US10208059B2, “Heterocyclic modulators of HIF activity for treatment of disease” (Board of Regents, University of Texas System, priority 2012, dated 2019), this text covers IC50 for 28 molecules.

For this experiment, the system named is 293T-HRE-GFP-luc cells. Briefly: Cell-based reporter assay for IC50 determinations. The following applies: hypoxia 6 hrs (1% O2), luminescence, read-out: IC50 Classification. The procedure:
Cell-Based Reporter Assay for IC50 Determinations
293T-HRE-GFP-luc cells were routinely maintained in DMEM media (high glucose version with GlutaMAX and HEPES, Gibco, catalog #10564) supplemented with 10% fetal bovine serum and 2 μg/mL puromycin (Invitrogen, catalog #A11138-03) using a humidified incubator (normoxia conditions consisting of 37° C., 5% CO2 and ambient O2).
In preparation for the reporter assay, cells were harvested and resuspended in DMEM media (high glucose version with GlutaMAX and HEPES) supplemented with 10% fetal bovine serum. Cells were inoculated into 384-well white Culturplates (Perkin Elmer catalog #6007680) at a density of 12,000 cells/well in a volume of 30 μL. The microplates were incubated overnight (approximately 17-19 hours) at 37° C. with 5% CO2 and ambient O2. Stock solutions of the test compounds were prepared in DMSO (Sigma, Catalog #D2650) and serially diluted 1:3 using DMSO. Compounds were additionally diluted (1:50) with culturemedium and 10 μL were added per well to the Culturplate. Following a 30 min. incubation under normoxia conditions, the plates were incubated in hypoxia for 6 hrs. (37° C., 5% CO2 and 1% O2). Steadylite Plus (Perkin Elmer, catalog #6016751) was then added (40 μL/well), the plates were mixed on an orbital shaker at room temperature in the dark for 15 min., and luminescence was measured using an Envision plate reader (Perkin Elmer). IC50 values were calculated using a four-parameter logistic curve fit. Results are shown below in Table 2; ND indicates no data.
In general terms: Reporter assays use an easily measured gene product as a stand-in for the process of interest.

Take `Cc1nc(-c2nc(-c3ccc(OC(F)(F)F)cc3)no2)nn1Cc1cccc(N2CCCC2)c1` [Example 50, 5-(5-Methyl-1-(3-(pyrrolidin-1-yl)benzyl)-1H-1,2,4-triazol-3-yl)-3-(4-(trifluoromethoxy)phenyl)-1,2,4-oxadiazole]: the IC50 is 100 to 1000 nM. On to `Cc1nc(-c2nc(-c3ccc(OC(F)(F)F)cc3)no2)nn1Cc1cccc(N2CCC(C#N)CC2)c1` [Example 51, 1-(3-((5-Methyl-3-(3-(4-(trifluoromethoxy)phenyl)-1,2,4-oxadiazol-5-yl)-1H-1,2,4-triazol-1-yl)methyl)phenyl)piperidine-4-carbonitrile], for which the IC50 was < 100 nM.

In the case of `Cc1nc(-c2nc(-c3ccc(OC(F)(F)F)cc3)no2)nn1Cc1cccc(N(C)C)c1` [Example 52, N,N-Dimethyl-3-((5-methyl-3-(3-(4-(trifluoromethoxy)phenyl)-1,2,4-oxadiazol-5-yl)-1H-1,2,4-triazol-1-yl)methyl)aniline], the IC50 was < 100 nM. `COCCCNc1cccc(Cn2nc(-c3nc(-c4ccc(OC(F)(F)F)cc4)no3)nc2C)c1` [Example 53, N-(3-Methoxypropyl)-3-((5-methyl-3-(3-(4-(trifluoromethoxy)phenyl)-1,2,4-oxadiazol-5-yl)-1H-1,2,4-triazol-1-yl)methyl)aniline]: the IC50 was < 100 nM.

For the molecule `Cc1nc(-c2nc(-c3ccc(OC(F)(F)F)cc3)no2)nn1Cc1cnccn1` [Example 54, 5-(5-Methyl-1-(pyrazin-2-ylmethyl)-1H-1,2,4-triazol-3-yl)-3-(4-(trifluoromethoxy)phenyl)-1,2,4-oxadiazole], the IC50 fell in the range of 1000 to 10000 nM. Consider `Cc1nc(-c2nc(-c3ccc(OC(F)(F)F)cc3)no2)nn1Cc1ccnc(N2CCOCC2)n1` [Example 55, 4-(4-((5-Methyl-3-(3-(4-(trifluoromethoxy)phenyl)-1,2,4-oxadiazol-5-yl)-1H-1,2,4-triazol-1-yl)methyl)pyrimidin-2-yl)morpholine], for which the IC50 was < 100 nM. Turning to `Cc1nc(-c2noc(-c3ccc(OC(F)(F)F)cc3)n2)nn1Cc1cccc(N2CCN(C)CC2)c1` [Example 56, 3-(5-Methyl-1-(3-(4-methylpiperazin-1-yl)benzyl)-1H-1,2,4-triazol-3-yl)-5-(4-(trifluoromethoxy)phenyl)-1,2,4-oxadiazole], the IC50 is < 100 nM. For `Cc1nc(-c2noc(-c3ccc(OC(F)(F)F)cc3)n2)nn1Cc1cccc(N2CCOCC2)c1` [Example 57, 4-(3-((5-Methyl-3-(5-(4-(trifluoromethoxy)phenyl)-1,2,4-oxadiazol-3-yl)-1H-1,2,4-triazol-1-yl)methyl)phenyl)morpholine] the value was < 100 nM. As to `Cc1nc(-c2noc(-c3ccc(OC(F)(F)F)cc3)n2)nn1Cc1cccc(N(C)C)c1` [Example 58, N,N-Dimethyl-3-((5-methyl-3-(5-(4-(trifluoromethoxy)phenyl)-1,2,4-oxadiazol-3-yl)-1H-1,2,4-triazol-1-yl)methyl)aniline], the IC50 lay in the range of 100 to 1000 nM. In the case of `Cc1nc(-c2nc(-c3ccc(OC(F)(F)F)cc3)no2)nn1Cc1cccc(O)c1` [Example 59, 3-((5-Methyl-3-(3-(4-(trifluoromethoxy)phenyl)-1,2,4-oxadiazol-5-yl)-1H-1,2,4-triazol-1-yl)methyl)phenol], the concentration for half-maximal inhibition (IC50) lay in the range of 100 to 1000 nM. With `COCCOc1cccc(Cn2nc(-c3nc(-c4ccc(OC(F)(F)F)cc4)no3)nc2C)c1` [Example 60, 5-(1-{[3-(2-Methoxyethoxy)phenyl]methyl}-5-methyl-1H-1,2,4-triazol-3-yl)-3-[4-(trifluoromethoxy)phenyl]-1,2,4-oxadiazole] the figure was < 100 nM; with `Cc1nc(-c2nc(-c3ccc(OC(F)(F)F)cc3)no2)nn1Cc1cccc(OCC(N)=O)c1` [Example 61, 2-{3-[(5-Methyl-3-{3-[4-(trifluoromethoxy)phenyl]-124-oxadiazol-5-yl}-1H-124-triazol-1-yl)methyl]phenoxy}acetamide], < 100 nM; with `Cc1nc(-c2nc(-c3ccc(OC(F)(F)F)cc3)no2)nn1Cc1cccc(OCC(=O)N(C)C)c1` [Example 62, N N-Dimethyl-2-{3-[(5-methyl-3-{3-[4-(trifluoromethoxy)phenyl]-124-oxadiazol-5-yl}-1H-124-triazol-1-yl)methyl]phenoxy}acetamide], < 100 nM. `Cc1nc(-c2nc(-c3ccc(OC(F)(F)F)cc3)no2)nn1Cc1cccc(OC(C)C)c1` [Example 63, 5-(5-Methyl-1-{[3-(propan-2-yloxy)phenyl]methyl}-1H-1,2,4-triazol-3-yl)-3-[4-(trifluoromethoxy)phenyl]-1,2,4-oxadiazole]: the IC50 is < 100 nM. Take `CCOc1cccc(Cn2nc(-c3nc(-c4ccc(OC(F)(F)F)cc4)no3)nc2C)c1` [Example 64, 5-{1-[(3-Ethoxyphenyl)methyl]-5-methyl-1H-1,2,4-triazol-3-yl}-3-[4-(trifluoromethoxy)phenyl]-1,2,4-oxadiazole]: the IC50 was < 100 nM. For `Cc1nc(-c2nc(-c3ccc(OC(F)(F)F)cc3)no2)nn1Cc1cccc(OCCO)c1` [Example 65, 2-{3-[(5-Methyl-3-{3-[4-(trifluoromethoxy)phenyl]-1,2,4-oxadiazol-5-yl}-1H-1,2,4-triazol-1-yl)methyl]phenoxy}ethan-1-ol] the value was < 100 nM; for `Cc1nc(-c2nc(-c3ccc(OC(F)(F)F)cc3)no2)nn1Cc1cccc(OCC#N)c1` [Example 66, 2-{3-[(5-Methyl-3-{3-[4-(trifluoromethoxy)phenyl]-1,2,4-oxadiazol-5-yl}-1H-1,2,4-triazol-1-yl)methyl]phenoxy}acetonitrile], 100 to 1000 nM; for `Cc1nc(-c2nc(-c3ccc(OC(F)(F)F)cc3)no2)nn1Cc1cccc(OCCNC(=O)OC(C)(C)C)c1` [Example 67, Tert-butyl N-(2-{3-[(5-methyl-3-{3-[4-(trifluoromethoxy)phenyl]-1,2,4-oxadiazol-5-yl}-1H-1,2,4-triazol-1-yl)methyl]phenoxy}ethyl)carbamate], < 100 nM. Regarding `Cc1nc(-c2nc(-c3ccc(OC(F)(F)F)cc3)no2)nn1Cc1cccc(OC2COC2)c1` [Example 68, 5-(5-Methyl-1-{[3-(oxetan-3-yloxy)phenyl]methyl}-1H-1,2,4-triazol-3-yl)-3-[4-(trifluoromethoxy)phenyl]-1,2,4-oxadiazole], the IC50 was < 100 nM. For the molecule `Cc1nc(-c2nc(-c3ccc(OC(F)(F)F)cc3)no2)nn1Cc1cccc(OC2CCOCC2)c1` [Example 69, 5-(5-Methyl-1-{[3-(oxan-4-yloxy)phenyl]methyl}-1H-1,2,4-triazol-3-yl)-3-[4-(trifluoromethoxy)phenyl]-1,2,4-oxadiazole], the IC50 is < 100 nM. For `Cc1nc(-c2nc(-c3ccc(OC(F)(F)F)cc3)no2)nn1Cc1cccc(OCCN)c1` [Example 70, 5-(1-{[3-(2-Aminoethoxy)phenyl]methyl}-5-methyl-1H-1,2,4-triazol-3-yl)-3-[4-(trifluoromethoxy)phenyl]-1,2,4-oxadiazole] the value was 100 to 1000 nM; for `Cc1nc(-c2nc(-c3ccc(OC(F)(F)F)cc3)no2)nn1Cc1cccc(OCCCO)c1` [Example 71, 3-{3-[(5-Methyl-3-{3-[4-(trifluoromethoxy)phenyl]-1,2,4-oxadiazol-5-yl}-1H-1,2,4-triazol-1-yl)methyl]phenoxy}propan-1-ol], < 100 nM; for `COC(C)(C)CCOc1cccc(Cn2nc(-c3nc(-c4ccc(OC(F)(F)F)cc4)no3)nc2C)c1` [Example 72, 5-(1-{[3-(3-Methoxy-3-methylbutoxy)phenyl]methyl}-5-methyl-1H-1,2,4-triazol-3-yl)-3-[4-(trifluoromethoxy)phenyl]-1,2,4-oxadiazole], < 100 nM. Consider `Cc1nc(-c2nc(-c3ccc(OC(F)(F)F)cc3)no2)nn1Cc1cccc(OC2CCN(C)CC2)c1` [Example 73, 1-Methyl-4-{3-[(5-methyl-3-{3-[4-(trifluoromethoxy)phenyl]-1,2,4-oxadiazol-5-yl}-1H-1,2,4-triazol-1-yl)methyl]phenoxy}piperidine], for which the IC50 is < 100 nM. With `Cc1nc(-c2nc(-c3ccc(OC(F)(F)F)cc3)no2)nn1Cc1cccc(OCCCN(C)C)c1` [Example 74, Dimethyl(3-{3-[(5-methyl-3-{3-[4-(trifluoromethoxy)phenyl]-1,2,4-oxadiazol-5-yl}-1H-1,2,4-triazol-1-yl)methyl]phenoxy}propyl)amine] the figure was < 100 nM; with `Cc1nc(-c2nc(-c3ccc(OC(F)(F)F)cc3)no2)nn1Cc1cc[nH]c(=O)c1` [Example 75, 4-[(5-Methyl-3-{3-[4-(trifluoromethoxy)phenyl]-1,2,4-oxadiazol-5-yl}-1H-1,2,4-triazol-1-yl)methyl]-1,2-dihydropyridin-2-one], 100 to 1000 nM; with `Cc1nc(-c2nc(-c3ccc(OC(F)(F)F)cc3)no2)nn1Cc1ccn(CC(C)C)c(=O)c1` [Example 76a, 4-[(5-Methyl-3-{3-[4-(trifluoromethoxy)phenyl]-1,2,4-oxadiazol-5-yl}-1H-1,2,4-triazol-1-yl)methyl]-1-(2-methylpropyl)-1,2-dihydropyridin-2-one], 100 to 1000 nM. As to `Cc1nc(-c2nc(-c3ccc(OC(F)(F)F)cc3)no2)nn1Cc1ccnc(OCC(C)C)c1` [Example 76b, 4-[(5-Methyl-3-{3-[4-(trifluoromethoxy)phenyl]-1,2,4-oxadiazol-5-yl}-1H-1,2,4-triazol-1-yl)methyl]-2-(2-methylpropoxy)pyridine], the IC50 lay in the range of 100 to 1000 nM.

The IC50 is the midpoint of a concentration-inhibition curve.
